One block for each compound: values may come before it.
System: 941728-121-R-J1-PDC complex spheroid viability
Assay: Anticancer human tumor 941728-121-R-J1-PDC patient-derived lung adenocarcinoma cell line growth inhibition [RAS]
Details: for IC50: curve of first compound; for viability, T/C: stronger effect = lower value
Procedure, shortened: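 Multi-cell-type spheroids: tumor cells plus HUVEC endothelial cells and mesenchymal stem cells. RAS-pathway inhibitors were combined with targeted agents, each dosed in half-log steps down from clinical Cmax, or from 10 microM when Cmax was unknown.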

[1] = second compound 0.0316 µM, first compound 0.00316 µM
[2] = second compound 0.0316 µM, first compound 0.01 µM
[3] = second compound 0.0316 µM, first compound 0.0316 µM
[4] = second compound 0.0316 µM, first compound 0.1 µM
[5] = second compound 0.0316 µM, first compound 0.316 µM
[6] = second compound 0.0316 µM, first compound 1 µM
[7] = second compound 0.1 µM, first compound 0.00316 µM
[8] = second compound 0.1 µM, first compound 0.01 µM
[9] = second compound 0.1 µM, first compound 0.0316 µM
[10] = second compound 0.1 µM, first compound 0.1 µM
[11] = second compound 0.1 µM, first compound 0.316 µM
[12] = second compound 0.1 µM, first compound 1 µM
[13] = second compound 0.316 µM, first compound 0.00316 µM
[14] = second compound 0.316 µM, first compound 0.01 µM
[15] = second compound 0.316 µM, first compound 0.0316 µM
[16] = second compound 0.316 µM, first compound 0.1 µM
[17] = second compound 0.316 µM, first compound 0.316 µM
[18] = second compound 0.316 µM, first compound 1 µM
[19] = second compound 1 µM, first compound 0.00316 µM
[20] = second compound 1 µM, first compound 0.01 µM
[21] = second compound 1 µM, first compound 0.0316 µM
[22] = second compound 1 µM, first compound 0.1 µM
[23] = second compound 1 µM, first compound 0.316 µM
[24] = second compound 1 µM, first compound 1 µM
[25] = second compound 0.00316 µM, first compound 0.00316 µM
[26] = second compound 0.00316 µM, first compound 0.01 µM
[27] = second compound 0.00316 µM, first compound 0.0316 µM
[28] = second compound 0.00316 µM, first compound 0.1 µM
[29] = second compound 0.00316 µM, first compound 0.316 µM
[30] = second compound 0.00316 µM, first compound 1 µM
[31] = second compound 0.01 µM, first compound 0.00316 µM
[32] = second compound 0.01 µM, first compound 0.01 µM
[33] = second compound 0.01 µM, first compound 0.0316 µM
[34] = second compound 0.01 µM, first compound 0.1 µM
[35] = second compound 0.01 µM, first compound 0.316 µM
[36] = second compound 0.01 µM, first compound 1 µM
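Further: spheroids exposed to compounds for 7 days before readout.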
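Wherever viability, T/C is given: 100% = DMSO vehicle control viability.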

IC50 (second compound 0.00316 µM): < 0.949 nM
IC50 (second compound 0.01 µM): < 0.949 nM
IC50 (second compound 0.0316 µM): < 0.949 nM
IC50 (second compound 0.1 µM): < 0.949 nM
IC50 (second compound 0.316 µM): < 0.949 nM
IC50 (second compound 1 µM): < 0.949 nM
SMILES: CC1(C)CCC(Nc2ncc(C(F)(F)F)c(-c3c[nH]c4c(P(C)(C)=O)c(C#N)ccc34)n2)CN1 (stereo not drawn) + C=CC(=O)N1CCN(c2nc(OCC3CCCN3C)nc3c(F)c(-c4nc(N)cc(C)c4C(F)(F)F)c(Cl)cc23)C(C)C1
viability, T/C (second compound 0.00316 µM, first compound 0.000949 µM): 17.1%
viability, T/C (second compound 0.00316 µM, first compound 0.003 µM): 18.1%
viability, T/C (second compound 0.00316 µM, first compound 0.00949 µM): 19.7%
viability, T/C (second compound 0.00316 µM, first compound 0.03 µM): 19%
viability, T/C (second compound 0.00316 µM, first compound 0.0949 µM): 20.5%
viability, T/C (second compound 0.00316 µM, first compound 0.3 µM): 20.9%
viability, T/C (second compound 0.01 µM, first compound 0.000949 µM): 18.9%
viability, T/C (second compound 0.01 µM, first compound 0.003 µM): 16.2%
viability, T/C (second compound 0.01 µM, first compound 0.00949 µM): 17.9%
viability, T/C (second compound 0.01 µM, first compound 0.03 µM): 17.8%
viability, T/C (second compound 0.01 µM, first compound 0.0949 µM): 17.9%
viability, T/C (second compound 0.01 µM, first compound 0.3 µM): 16.8%
viability, T/C (second compound 0.0316 µM, first compound 0.000949 µM): 14.8%
viability, T/C (second compound 0.0316 µM, first compound 0.003 µM): 16.8%
viability, T/C (second compound 0.0316 µM, first compound 0.00949 µM): 17.8%
viability, T/C (second compound 0.0316 µM, first compound 0.03 µM): 17.6%
viability, T/C (second compound 0.0316 µM, first compound 0.0949 µM): 17.7%
viability, T/C (second compound 0.0316 µM, first compound 0.3 µM): 17.7%
viability, T/C (second compound 0.1 µM, first compound 0.000949 µM): 15.4%
viability, T/C (second compound 0.1 µM, first compound 0.003 µM): 16.9%
viability, T/C (second compound 0.1 µM, first compound 0.00949 µM): 17%
viability, T/C (second compound 0.1 µM, first compound 0.03 µM): 17.2%
viability, T/C (second compound 0.1 µM, first compound 0.0949 µM): 17.8%
viability, T/C (second compound 0.1 µM, first compound 0.3 µM): 19.1%
viability, T/C (second compound 0.316 µM, first compound 0.000949 µM): 15.3%
viability, T/C (second compound 0.316 µM, first compound 0.003 µM): 15.8%
viability, T/C (second compound 0.316 µM, first compound 0.00949 µM): 15.8%
viability, T/C (second compound 0.316 µM, first compound 0.03 µM): 17.7%
viability, T/C (second compound 0.316 µM, first compound 0.0949 µM): 19.3%
viability, T/C (second compound 0.316 µM, first compound 0.3 µM): 18.1%
viability, T/C (second compound 1 µM, first compound 0.000949 µM): 16.6%
viability, T/C (second compound 1 µM, first compound 0.003 µM): 16.6%
viability, T/C (second compound 1 µM, first compound 0.00949 µM): 18.8%
viability, T/C (second compound 1 µM, first compound 0.03 µM): 19.3%
viability, T/C (second compound 1 µM, first compound 0.0949 µM): 18.6%
viability, T/C (second compound 1 µM, first compound 0.3 µM): 21%

IC50 (second compound 0.0316 µM): 142 nM
IC50 (second compound 0.1 µM): 54.7 nM
IC50 (second compound 0.316 µM): 16.8 nM
IC50 (second compound 1 µM): < 3.16 nM
IC50 (second compound 3.16 µM): < 3.16 nM
IC50 (second compound 10 µM): < 3.16 nM
SMILES: C=CC(=O)Nc1cc(Nc2nccc(-c3cn(C)c4ccccc34)n2)c(OC)cc1N(C)CCN(C)C + C#Cc1c(F)ccc2cc(O)cc(-c3ncc4c(N5CC6CCC(C5)N6)nc(OCC56CCCN5CC(F)C6)nc4c3F)c12
viability, T/C [1]: 79.4%
viability, T/C [2]: 70.4%
viability, T/C [3]: 61.4%
viability, T/C [4]: 51%
viability, T/C [5]: 44.9%
viability, T/C [6]: 39.5%
viability, T/C [7]: 78.5%
viability, T/C [8]: 65.6%
viability, T/C [9]: 58%
viability, T/C [10]: 40.9%
viability, T/C [11]: 42.1%
viability, T/C [12]: 36.4%
viability, T/C [13]: 56.1%
viability, T/C [14]: 57.7%
viability, T/C [15]: 41.7%
viability, T/C [16]: 36.6%
viability, T/C [17]: 32.8%
viability, T/C [18]: 33.8%
viability, T/C [19]: 35.2%
viability, T/C [20]: 39.1%
viability, T/C [21]: 31.6%
viability, T/C [22]: 29.2%
viability, T/C [23]: 29.5%
viability, T/C [24]: 30%
viability, T/C (second compound 3.16 µM, first compound 0.00316 µM): 30.3%
viability, T/C (second compound 3.16 µM, first compound 0.01 µM): 26.5%
viability, T/C (second compound 3.16 µM, first compound 0.0316 µM): 26.5%
viability, T/C (second compound 3.16 µM, first compound 0.1 µM): 26.1%
viability, T/C (second compound 3.16 µM, first compound 0.316 µM): 26%
viability, T/C (second compound 3.16 µM, first compound 1 µM): 24.6%
viability, T/C (second compound 10 µM, first compound 0.00316 µM): 22.1%
viability, T/C (second compound 10 µM, first compound 0.01 µM): 22.3%
viability, T/C (second compound 10 µM, first compound 0.0316 µM): 19.7%
viability, T/C (second compound 10 µM, first compound 0.1 µM): 19.3%
viability, T/C (second compound 10 µM, first compound 0.316 µM): 20%
viability, T/C (second compound 10 µM, first compound 1 µM): 17.5%

IC50 (second compound 0.00316 µM): < 3.16 nM
IC50 (second compound 0.01 µM): < 3.16 nM
IC50 (second compound 0.0316 µM): < 3.16 nM
IC50 (second compound 0.1 µM): < 3.16 nM
IC50 (second compound 0.316 µM): < 3.16 nM
IC50 (second compound 1 µM): < 3.16 nM
SMILES: Nc1ccn(C2OC(CO)C(O)C2(F)F)c(=O)n1 (stereo not drawn) + C=CC(=O)N1CCN(c2nc(OCC3CCCN3C)nc3c(F)c(-c4nc(N)cc(C)c4C(F)(F)F)c(Cl)cc23)C(C)C1
viability, T/C [25]: 17.8%
viability, T/C [26]: 14.8%
viability, T/C [27]: 15.2%
viability, T/C [28]: 14%
viability, T/C [29]: 15.9%
viability, T/C [30]: 15.6%
viability, T/C [31]: 17.7%
viability, T/C [32]: 14.7%
viability, T/C [33]: 16.3%
viability, T/C [34]: 16.2%
viability, T/C [35]: 14.5%
viability, T/C [36]: 13.3%
viability, T/C [1]: 14.9%
viability, T/C [2]: 15.6%
viability, T/C [3]: 15.7%
viability, T/C [4]: 13.3%
viability, T/C [5]: 14.9%
viability, T/C [6]: 15.2%
viability, T/C [7]: 16.9%
viability, T/C [8]: 13.9%
viability, T/C [9]: 15.4%
viability, T/C [10]: 14.1%
viability, T/C [11]: 12.1%
viability, T/C [12]: 12.6%
viability, T/C [13]: 16.4%
viability, T/C [14]: 16.1%
viability, T/C [15]: 15.9%
viability, T/C [16]: 14.3%
viability, T/C [17]: 15.8%
viability, T/C [18]: 13.8%
viability, T/C [19]: 18.9%
viability, T/C [20]: 15.8%
viability, T/C [21]: 15.8%
viability, T/C [22]: 16.6%
viability, T/C [23]: 14%
viability, T/C [24]: 12.6%

IC50 (second compound 0.00316 µM): < 3.16 nM
IC50 (second compound 0.01 µM): < 3.16 nM
IC50 (second compound 0.0316 µM): < 3.16 nM
IC50 (second compound 0.1 µM): < 3.16 nM
IC50 (second compound 0.316 µM): < 3.16 nM
IC50 (second compound 1 µM): < 3.16 nM
SMILES: O=C(c1ccc(F)c(F)c1Nc1ccc(I)cc1F)N1CC(O)([C@@H]2CCCCN2)C1 + C=CC(=O)N1CCN(c2nc(OCC3CCCN3C)nc3c(F)c(-c4nc(N)cc(C)c4C(F)(F)F)c(Cl)cc23)C(C)C1
viability, T/C [25]: 20.4%
viability, T/C [26]: 19.1%
viability, T/C [27]: 15.5%
viability, T/C [28]: 14.5%
viability, T/C [29]: 12.7%
viability, T/C [30]: 11.8%
viability, T/C [31]: 18.9%
viability, T/C [32]: 14.6%
viability, T/C [33]: 16.7%
viability, T/C [34]: 12.9%
viability, T/C [35]: 12.5%
viability, T/C [36]: 11.6%
viability, T/C [1]: 16.1%
viability, T/C [2]: 13.8%
viability, T/C [3]: 13.3%
viability, T/C [4]: 13.9%
viability, T/C [5]: 13%
viability, T/C [6]: 12.1%
viability, T/C [7]: 22%
viability, T/C [8]: 13.5%
viability, T/C [9]: 14.5%
viability, T/C [10]: 13.8%
viability, T/C [11]: 12.8%
viability, T/C [12]: 10.9%
viability, T/C [13]: 15%
viability, T/C [14]: 13.7%
viability, T/C [15]: 13.9%
viability, T/C [16]: 13.1%
viability, T/C [17]: 12.4%
viability, T/C [18]: 13.5%
viability, T/C [19]: 16.4%
viability, T/C [20]: 17%
viability, T/C [21]: 15.3%
viability, T/C [22]: 13.2%
viability, T/C [23]: 13.2%
viability, T/C [24]: 11.1%

Source: PubChem BioAssay AID2060896 (Molecular Pharmacology Branch, DTP, NCI, 2025)
